11 molecules from patent US8940784B2, “Water-soluble CC-1065 analogs and their conjugates” (priority 2006, dated 2015) can be followed below.

Counter-ions that a name gives are not always drawn.

Data set [1] relates to human lung carcinoma cell line A549. The data set can be described thus: In vitro cytotoxicity, clone forming assay in A549 cells. The note with it: A549, 24 h exposure, 12 days cultivation. The data set is classed as cell-based. The protocol:
In vitro cytotoxicity of compounds (+)-8a-e and (+)-4a-e: Adherent cells of line A549 were sown in triplicate in 6 multiwell plates at concentrations of 10^2, 10^3, 10^4, and 10^5 cells per cavity. Culture medium was removed after 24 h and cells were washed hi the incubation medium Ultraculture (UC, serum-free special medium, purchased from BioWhittaker Europe, Verviers, Belgium). Incubation with compounds (+)-8a-e and (+)-4a-e was then performed in Ultraculture medium at various concentrations for 24 h. All substances were used as freshly prepared solutions in DMSO (Merck, Darmstadt, Germany) diluted with incubation medium to a final concentration of 1% DMSO in the wells. After 24 h of exposure the test substance was removed and the cells were washed with fresh medium. Cultivation was done at 37° C. and 7.5% CO2 in air for 12 days. The medium was removed and the clones were dried and stained with Löffler's methylene blue (Merck, Darmstadt, Germany). They were then counted macroscopically.
The IC50 values are based on the relative clone forming rate, which was determined according to the following formula: relative clone forming rate [%]=100×(number of clones counted after exposure)/(number of clones counted in the control).
Liberation of the drugs from their glycosidic prodrugs was achieved by addition of 4.0 U·mL^−1 β-D-galactosidase (EC 3.2.1.23, Grade X, purchased from Sigma Germany, Deisenhofen, Germany) to the cells during incubation with the substances.

Data set [2] has as its system MDA-MB-231 cells (estrogen-independent human breast cancer cell line). The data set can be described thus: ADEPT in vivo experiment, orthotopic breast tumor SCID mouse model. The protocol:
Compound (+)-8a was evaluated in an orthotopic breast tumor SCID mouse model using the ADEPT concept. Female SCID mice were inoculated with 1×10^6 MDA-MB-231 cells (estrogen-independent human breast cancer cell line) suspended in 25 μl sterile PBS in the mammary fad pat of the 4th mammary complex. Tumors were allowed to grow and ADEPT therapy was started after tumor volumes reached a detectable size. Mice were treated according to the treatment schedule in FIG. 17 and received two treatment cycles of a monoclonal anti-human urokinase plasminogen activator receptor (uPAR) antibody conjugated with β-Galactosidase, uPAR*β-Gal, in PBS followed by three injections with conjugate (+)-8a in 1% DMSO/NaCl solution. Control groups received either antibody-enzyme and 1% DMSO/NaCl solution (antibody-enzyme only group), PBS and conjugate (conjugate only group), or PBS and 1% DMSO/NaCl solution (control group).
In vivo evaluation of compound (+)-8a in an orthotopic breast tumor SCID mouse model using the ADEPT concept: Before tumor cell implantation, female SCID mice were anesthetized by peritoneal injection of 75 mg/kg ketamine hydrochloride with 15 mg/kg xylazine. 1×10^6 MDA-MB-231 cells (estrogen-independent human breast cancer cell line) suspended in 25 μl sterile phosphate-buffered saline (PBS) were then implanted into the mammary fad pat of the 4th mammary complex. After implantation, mice were inspected daily for body weight loss, general condition, and tumor formation. On day 21, animals were randomized in groups of 5-12 mice (control, antibody-enzyme only, prodrug only, and ADEPT therapy). On days 22 and 30, mice were injected intravenously with PBS (control, prodrug only groups) or 50 μg of a monoclonal anti-human urokinase plasminogen activator receptor (uPAR) antibody conjugated with β-Galactosidase, uPAR*β-Gal, in PBS (antibody-enzyme only, ADEPT therapy groups). On days 24, 26, 28, 32, 34, and 36, mice were injected intravenously with 1% DMSO/NaCl solution (control, antibody-enzyme only groups) or 104 μg of (+)-8a in 1% DMSO/NaCl solution (prodrug only, ADEPT therapy groups). Mice were sacrificed on day 38 and tumors were excised, weighed, placed in phosphate-buffered 4% formalin for 16 hours at room temperature, and embedded in paraffin. Tissue sections (2.5 μm) were obtained, stained with hematoxylin and eosin (H & E), and inspected by routine microscopic examinations. For immunohistochemistry, 2.5 μm sections from formalin-fixed and paraffin-embedded tissues, were mounted on slides, deparaffinized in xylene and rehydrated in ethanol/water dilutions. Slides for Ki67 staining were pretreated by boiling in a microwave oven (5×5 min) in citrate buffer (pH 6.0) for antigen retrieval. Endogenous peroxidases were inactivated by treatment with 3% hydrogen peroxide for 10 min. Tris-buffered 10% rabbit serum solution (Dako, Hamburg, Germany, No. X 0902) was then added to block nonspecific protein binding and slides were incubated with murine anti-human Ki67 (Dianova, Hamburg, Germany, No. dia 505) for 60 min (2 μg/ml) followed by exposure to biotinylated rabbit anti-mouse F(ab′)2-fragment (Dako, No. E 0413, 16.8 μg/ml) for 30 min. Sections were then incubated with avidin-peroxidase solution (Dako, No. P 364), stained with aminoethylcarbazole (AEC substrate solution, Sigma), rinsed in water, and finally counterstained with hematoxylin.

The mark [3] stands for this setting: with addition of 4.0 U/mL β-D-galactosidase.
[4] abbreviates: without addition of β-D-galactosidase.

Consider `C[C@@H](Cl)[C@@H]1CN(C(=O)c2cc3cc(NC(=O)CN(C)C)ccc3[nH]2)c2cc(O[C@@H]3O[C@H](CO)[C@H](O)[C@H](O)[C@H]3O)c3ccccc3c21` [(+)-8e], for which the results for the IC50 in data set [1] (setting [3]) and in data set [1] (setting [4]) were 5.9 nM and 7700 nM, respectively.

Consider `COc1cc2[nH]c(C(=O)N3CC(C(C)Cl)c4c3cc(O)c3ccccc43)cc2cc1OCCN(C)C` (single isomer, unassigned; (+)) [(+)-4c, (+)-{(1,10)-anti-1-(10-Chloroethyl)-5-hydroxy-3-[(5-(2-(N,N-dimethylamino)ethoxy)-6-methoxy-indol-2-yl)carbonyl]-1,2-dihydro-3H-benz[e]indole-hydrochloride}], for which the IC50 in data set [1] (setting [4]) is 0.2 nM.

On to `CC(Cl)C1CN(C(=O)c2cc3cc(OCC4CCN(C)CC4)ccc3[nH]2)c2cc(O[C@@H]3O[C@H](CO)[C@H](O)[C@H](O)[C@H]3O)c3ccccc3c21` (single isomer, unassigned; (+)) [(+)-8d, [(+)-(1,10)-anti-1-(10-Chloroethyl)-3-[(5-((1-methylpiperidin-4-yl)methoxy)-indol-2-yl)carbonyl]-1,2-dihydro-3H-benz[e]indol-5-yl]-β-D-galactopyranoside], for which the figures for the IC50 in data set [1] (setting [3]) and in data set [1] (setting [4]) were 0.75 nM and 830 nM, respectively.

For the molecule `C[C@@H](Cl)[C@@H]1CN(C(=O)c2cc3cc(OCCN(C)C)ccc3[nH]2)c2cc(O[C@@H]3O[C@H](CO)[C@H](O)[C@H](O)[C@H]3O)c3ccccc3c21` [(1S,10R)-8a and (1R,10S)-8a′, [(1,10)-anti-1-(10-Chloroethyl)-3-[(5-(2-(N,N-dimethylamino)ethoxy)-indol-2-yl)carbonyl]-1,2-dihydro-3H-benz[e]indol-5-yl]-β-D-galactopyranoside], the IC50 in data set [1] (setting [3]) was found to be 1.2 nM; in data set [1] (setting [4]), 7900 nM.

For the molecule `CC(Cl)C1CN(C(=O)c2cc3cc(OCCN4CCOCC4)ccc3[nH]2)c2cc(O[C@@H]3O[C@H](CO)[C@H](O)[C@H](O)[C@H]3O)c3ccccc3c21` (single isomer, unassigned; (+)) [(+)-8b, [(+)-(1,10)-anti-1-(10-Chloroethyl)-3-[(5-(2-(morpholin-4-yl)ethoxy)-indol-2-yl)carbonyl]-1,2-dihydro-3H-benz[e]indol-5-yl]-β-D-galactopyranoside], the IC50 in data set [1] (setting [3]) worked out at 2.5 nM; in data set [1] (setting [4]), 1500 nM.

As to `CC(Cl)C1CN(C(=O)c2cc3cc(OCCN4CCOCC4)ccc3[nH]2)c2cc(O)c3ccccc3c21` (single isomer, unassigned; (+)) [(+)-4b, (+)-{(1,10)-anti-1-(10-Chloroethyl)-5-hydroxy-3-[(5-(2-(morpholin-4-yl)ethoxy)indol-2-yl)carbonyl]-1,2-dihydro-3H-benz[e]indole-hydrochloride}], the IC50 in data set [1] (setting [4]) was found to be 3.7 nM.

Regarding `COc1cc2[nH]c(C(=O)N3C[C@@H]([C@@H](C)Cl)c4c3cc(O[C@@H]3O[C@H](CO)[C@H](O)[C@H](O)[C@H]3O)c3ccccc43)cc2cc1OCCN(C)C` [(+)-8c, [(+)-(1S,10R)-1-(10-Chloroethyl)-3-[(5-(2-(N,N-dimethylamino)ethoxy)-6-methoxy-indol-2-yl)carbonyl]-1,2-dihydro-3H-benz[e]indol-5-yl]-β-D-galactopyranoside], the IC50 was found to be 0.22 nM in data set [1] (setting [3]) and 940 nM in data set [1] (setting [4]).

With `CC(Cl)C1CN(C(=O)c2cc3cc(OCC4CCN(C)CC4)ccc3[nH]2)c2cc(O)c3ccccc3c21` (single isomer, unassigned; (+)) [(+)-4d, (+)-{(1,10)-anti-1-(10-Chloroethyl)-5-hydroxy-3-[(5-((1-methylpiperidin-4-yl)methoxy)indol-2-yl)carbonyl]-1,2-dihydro-3H-benz[e]indole-hydrochloride}], the IC50 in data set [1] (setting [4]) is 0.8 nM.

On to `C[C@@H](Cl)[C@@H]1CN(C(=O)c2cc3cc(OCCN(C)C)ccc3[nH]2)c2cc(O[C@@H]3O[C@H](CO)[C@H](O)[C@H](O)[C@H]3O)c3ccccc3c21` [(+)-8a, [(1,10)-anti-1-(10-Chloroethyl)-3-[(5-(2-(N,N-dimethylamino)ethoxy)-indol-2-yl)carbonyl]-1,2-dihydro-3H-benz[e]indol-5-yl]-β-D-galactopyranoside], for which the IC50 in data set [1] (with addition of 4.0 U/mL β-D-galactosidase, listed as (1S,10R)-8a) turned out to be 0.75 nM; in data set [1] (without addition of β-D-galactosidase, listed as (1S,10R)-8a), 3600 nM. For the same molecule, the “average primary tumor volume” value in data set [2] (ADEPT therapy (uPAR*β-Gal followed by (+)-8a i.v.), after one treatment cycle) was 0.23±0.07 cm^3. Moreover, in data set [2] (ADEPT therapy (uPAR*β-Gal followed by (+)-8a i.v.), after two treatment cycles), the mean tumor volume worked out at 0.33±0.13 cm^3. The “necrotic tissue within tumors” value in data set [2] (ADEPT therapy versus vehicle-treated mice) was “more necrotic tissue within tumors”. The tolerability entry in data set [2] (ADEPT therapy, all animals) is on record as “well tolerated”. Moreover, the blood parameters result in data set [2] (treated mice compared to controls) is “not altered”. Moreover, the “inhibitory effect on tumor growth with respect to vehicle control” value in data set [2] (treatment with the substance alone (antibody-enzyme only or conjugate only group)) is “no inhibitory effect”.

The molecule `CC(Cl)C1CN(C(=O)c2cc3cc(OCCN(C)C)ccc3[nH]2)c2cc(O)c3ccccc3c21` (single isomer, unassigned; (+)) [(+)-4a, (1,10)-anti-1-(10-Chloroethyl)-5-hydroxy-3-[(5-(2-(N,N-dimethylamino)ethoxy)indol-2-yl)carbonyl]-1,2-dihydro-3H-benz[e]indole-hydrochloride] displayed an IC50 in data set [1] (setting [4]) of 0.75 nM.

In turn, `CC(Cl)C1CN(C(=O)c2cc3cc(NC(=O)CN(C)C)ccc3[nH]2)c2cc(O)c3ccccc3c21` (single isomer, unassigned; (+)) [(+)-4e] registered an IC50 in data set [1] (setting [4]) of 3.8 nM.
